Test results from PubChem BioAssay AID248 (DTP/NCI, 2004).
Where “and” joins values, the source holds several entries; their conditions need not be identical. Equal entries are not always repeated. Inconclusive results and toxic doses are left out. Rule as the data show it: active = T/C of 150% or more; inactive = T/C below 125%.

Test system: L1210 leukemia ip in BDF1 mice, survival T/C
Assay: NCI In Vivo Anticancer Drug Screen. Data for tumor model L1210 Leukemia (intraperitoneal) in B6D2F1 (BDF1) mice
Settings: endpoint: mean survival time, higher = longer survival
How it was run: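 Read-out is survival time, reported as the treated-group measurement over the vehicle-control measurement.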

[1] = dose: 100.0 mg/kg/injection, schedule: Q01DX001 (ip), vehicle: saline
[2] = dose: 100.0 mg/kg/injection, schedule: Q04DX003 (ip), vehicle: saline
[3] = dose: 200.0 mg/kg/injection, schedule: Q01DX001 (ip), vehicle: saline
[4] = dose: 200.0 mg/kg/injection, schedule: Q04DX003 (ip), vehicle: saline
[5] = dose: 400.0 mg/kg/injection, schedule: Q01DX001 (ip), vehicle: saline
[6] = dose: 100.0 mg/kg/injection, schedule: Q04DX003 (ip), vehicle: Klucel (hydroxypropylcellulose) (HPC)
[7] = dose: 200.0 mg/kg/injection, schedule: Q04DX003 (ip), vehicle: Klucel (hydroxypropylcellulose) (HPC)
[8] = dose: 400.0 mg/kg/injection, schedule: Q04DX003 (ip), vehicle: Klucel (hydroxypropylcellulose) (HPC)
[9] = dose: 100.0 mg/kg/injection, schedule: Q01DX009 (ip), vehicle: Klucel (hydroxypropylcellulose) (HPC)
[10] = dose: 200.0 mg/kg/injection, schedule: Q01DX009 (ip), vehicle: Klucel (hydroxypropylcellulose) (HPC)
[11] = dose: 6.25 mg/kg/injection, schedule: Q01DX009 (ip), vehicle: Klucel (hydroxypropylcellulose) (HPC)
[12] = dose: 12.5 mg/kg/injection, schedule: Q01DX009 (ip), vehicle: Klucel (hydroxypropylcellulose) (HPC)
[13] = dose: 25.0 mg/kg/injection, schedule: Q01DX009 (ip), vehicle: Klucel (hydroxypropylcellulose) (HPC)

Measured: T/C

O=C1C=CC(=O)O1 (tested in a mixture with another compound)
inactive: dose: 0.22 mg/kg/injection, schedule: Q01DX009 (ip), vehicle: acetone 96 % of control | dose: 0.44 mg/kg/injection, schedule: Q01DX009 (ip), vehicle: acetone 105 % of control | dose: 0.78 mg/kg/injection, schedule: Q04DX003 (ip), vehicle: other 93 % of control | dose: 0.88 mg/kg/injection, schedule: Q01DX009 (ip), vehicle: acetone 92 % of control | dose: 1.56 mg/kg/injection, schedule: Q04DX003 (ip), vehicle: other 96 % of control | dose: 3.12 mg/kg/injection, schedule: Q04DX003 (ip), vehicle: other 104 % of control | dose: 4.6 mg/kg/injection, schedule: Q04DX003 (ip), vehicle: Klucel (hydroxypropylcellulose) (HPC) 96 % of control | dose: 7.1 mg/kg/injection, schedule: Q04DX003 (ip), vehicle: Klucel (hydroxypropylcellulose) (HPC) 96 % of control | dose: 15.0 mg/kg/injection, schedule: Q01DX001 (ip), vehicle: carboxymethylcellulose (CMC) 112 % of control | dose: 22.0 mg/kg/injection, schedule: Q01DX015 (ip), vehicle: carboxymethylcellulose (CMC) 101 % of control and 119 % of control | dose: 30.0 mg/kg/injection, schedule: Q01DX001 (ip), vehicle: carboxymethylcellulose (CMC) 116 % of control | dose: 31.25 mg/kg/injection, schedule: Q#A X Z (ip), vehicle: carboxymethylcellulose (CMC) 96 % of control and 93 % of control and 108 % of control | dose: 33.0 mg/kg/injection, schedule: Q01DX015 (ip), vehicle: carboxymethylcellulose (CMC) 101 % of control and 103 % of control | dose: 50.0 mg/kg/injection, schedule: Q01DX009 (ip), vehicle: saline 107 % of control [middle of 5 runs] | dose: 50.0 mg/kg/injection, schedule: Q01DX015 (ip), vehicle: carboxymethylcellulose (CMC) 108 % of control | dose: 62.5 mg/kg/injection, schedule: Q#A X Z (ip), vehicle: carboxymethylcellulose (CMC) 96 % of control and 95 % of control and 106 % of control | dose: 75.0 mg/kg/injection, schedule: Q01DX001 (ip), vehicle: carboxymethylcellulose (CMC) 119 % of control | dose: 75.0 mg/kg/injection, schedule: Q01DX001 (ip), vehicle: water 104 % of control | dose: 75.0 mg/kg/injection, schedule: Q01DX015 (ip), vehicle: carboxymethylcellulose (CMC) 98 % of control | [1] 115 % of control | dose: 100.0 mg/kg/injection, schedule: Q01DX009 (ip), vehicle: saline 112 % of control [middle of 7 runs] | [2] 107 % of control and 112 % of control and 109 % of control | dose: 125.0 mg/kg/injection, schedule: Q#A X Z (ip), vehicle: carboxymethylcellulose (CMC) 86 % of control and 102 % of control and 106 % of control | dose: 125.0 mg/kg/injection, schedule: Q#A X Z (oral), vehicle: carboxymethylcellulose (CMC) 106 % of control and 100 % of control | dose: 150.0 mg/kg/injection, schedule: Q01DX001 (ip), vehicle: water 106 % of control | dose: 177.0 mg/kg/injection, schedule: Q01DX001 (ip), vehicle: saline 98 % of control | [3] 107 % of control | [4] 106 % of control [middle of 4 runs] | dose: 250.0 mg/kg/injection, schedule: Q#A X Z (ip), vehicle: carboxymethylcellulose (CMC) 86 % of control and 108 % of control and 90 % of control | dose: 250.0 mg/kg/injection, schedule: Q#A X Z (oral), vehicle: carboxymethylcellulose (CMC) 106 % of control and 100 % of control and 103 % of control | dose: 270.0 mg/kg/injection, schedule: Q01DX001 (ip), vehicle: saline 105 % of control | dose: 300.0 mg/kg/injection, schedule: Q01DX001 (ip), vehicle: water 97 % of control | [5] 112 % of control and 100 % of control | dose: 400.0 mg/kg/injection, schedule: Q01DX009 (ip), vehicle: saline 113 % of control | dose: 500.0 mg/kg/injection, schedule: Q#A X Z (oral), vehicle: carboxymethylcellulose (CMC) 100 % of control and 102 % of control | dose: 600.0 mg/kg/injection, schedule: Q01DX001 (ip), vehicle: saline 94 % of control | dose: 1000.0 mg/kg/injection, schedule: Q#A X Z (oral), vehicle: carboxymethylcellulose (CMC) 100 % of control and 106 % of control and 102 % of control

Cc1ccc(NC(=O)Nc2ccc(S(N)(=O)=O)cc2)c([N+](=O)[O-])c1
inactive: [6] 88 % of control | [7] 89 % of control | [8] 88 % of control

CC(=O)C1CCC=C2C1CC1CC2C1(C)C (configuration not stated)
inactive: [9] 106 % of control | [6] 92 % of control | [10] 100 % of control | [7] 87 % of control | dose: 400.0 mg/kg/injection, schedule: Q01DX009 (ip), vehicle: Klucel (hydroxypropylcellulose) (HPC) 101 % of control | [8] 90 % of control

S=P(NCCS)(N1CC1)N1CC1
inactive: [1] 106 % of control | [3] 101 % of control | [5] 101 % of control

CC1C(C)(C)C12C=CC=C2 (configuration not stated)
inactive: [1] 102 % of control | [3] 96 % of control | [5] 96 % of control

O=C(c1cccc([N+](=O)[O-])c1)c1[nH]c2sc3c(c2c1O)CCCC3
inactive: [11] 92 % of control | [12] 94 % of control and 91 % of control | [13] 89 % of control

CCN(CC)C(=O)C1CN2CCc3cc(OC)c(OC)cc3C2CC1OC(C)=O (configuration not stated)
inactive: [11] 94 % of control | [12] 97 % of control | dose: 25.0 mg/kg/injection, schedule: Q01DX001 (ip), vehicle: water 92 % of control | [13] 94 % of control | dose: 25.0 mg/kg/injection, schedule: Q04DX003 (ip), vehicle: Klucel (hydroxypropylcellulose) (HPC) 103 % of control | dose: 50.0 mg/kg/injection, schedule: Q01DX001 (ip), vehicle: water 111 % of control | dose: 50.0 mg/kg/injection, schedule: Q01DX009 (ip), vehicle: Klucel (hydroxypropylcellulose) (HPC) 103 % of control | dose: 50.0 mg/kg/injection, schedule: Q04DX003 (ip), vehicle: Klucel (hydroxypropylcellulose) (HPC) 100 % of control | dose: 100.0 mg/kg/injection, schedule: Q01DX001 (ip), vehicle: water 97 % of control | [9] 103 % of control | [6] 97 % of control | [10] 115 % of control

N[n+]1ccccc1
inactive: dose: 100.0 mg/kg/injection, schedule: Q04DX002 (ip), vehicle: saline with Tween-80 102 % of control | dose: 200.0 mg/kg/injection, schedule: Q04DX002 (ip), vehicle: saline with Tween-80 102 % of control | dose: 400.0 mg/kg/injection, schedule: Q04DX002 (ip), vehicle: saline with Tween-80 98 % of control

O=[N+]([O-])c1ccccc1C(=Nc1ccccc1)c1c(O)cc(O)cc1O
inactive: dose: 100.0 mg/kg/injection, schedule: Q01DX009 (ip), vehicle: acetone 94 % of control | [2] 96 % of control | dose: 200.0 mg/kg/injection, schedule: Q01DX009 (ip), vehicle: acetone 100 % of control | [4] 101 % of control | dose: 400.0 mg/kg/injection, schedule: Q04DX003 (ip), vehicle: saline 98 % of control

O=[N+]([O-])c1ccc2ncccc2c1
inactive: [6] 106 % of control | [7] 101 % of control
